Assay results taken from patent US9371336B2, “Compounds for treating spinal muscular atrophy” (PTC Therapeutics Inc., priority 2012, dated 2016).

What was measured:
[1] = system: SMN2 minigene mRNA (SMN2-A minigene construct); test: SMN2 minigene mRNA splicing RT-qPCR assay in cultured cells; format: cell-based, human; conditions: Homo sapiens, HEK293-H; HEK293H cells stably transfected with SMN2-A minigene, 24 hours, 7-point concentration data; concentration giving 1.5-fold SMN2 full length mRNA relative to vehicle-treated cells; read-out: EC1.5x for production of full length SMN2 mRNA
Procedure: The reverse transcription-quantitative PCR-based (RT-qPCR) assay is used to quantify the level of the full length SMN2 minigene mRNA containing SMN2 exon 7 in a HEK293H cell line stably transfected with said minigene and treated with a test compound.
HEK293H cells stably transfected with the SMN2-A minigene construct described above (10,000 cells/well) are seeded in 200 μL of cell culture medium (DMEM plus 10% FBS, with 200 μg/mL hygromycin) in 96-well flat-bottom plates and the plate is immediately swirled to ensure proper dispersal of cells, forming an even monolayer of cells. Cells are allowed to attach for at least 4-6 hours. Test compounds are serially diluted 3.16-fold in 100% DMSO to generate a 7-point concentration curve. A solution of test compound (1 μL, 200× in DMSO) is added to each cell-containing well and the plate is incubated for 24 hours in a cell culture incubator (37° C., 5% CO2, 100% relative humidity). Two replicates are prepared for each test compound concentration. The cells are then lysed in Cells-To-Ct lysis buffer and the lysate is stored at −80° C.
Primer SMN Forward A (SEQ ID NO. 1) hybridizes to a nucleotide sequence in exon 7 (nucleotide 22 to nucleotide 40), primer SMN Reverse A (SEQ ID NO. 2) hybridizes to a nucleotide sequence in the coding sequence of Firefly luciferase, SMN Probe A (SEQ ID NO. 3) hybridizes to a nucleotide sequence in exon 7 (nucleotide 50 to nucleotide 54) and exon 8 (nucleotide 1 to nucleotide 21). The combination of these three oligonucleotides detects only SMN1 or SMN2 minigenes (RT-qPCR) and will not detect endogenous SMN1 or SMN2 genes.
The SMN forward and reverse primers are used at final concentrations of 0.4 μM. The SMN probe is used at a final concentration of 0.15 μM. The GAPDH primers are used at final concentrations of 0.2 μM and the probe at 0.15 μM.
The SMN2-minigene GAPDH mix (15 μL total volume) is prepared by combining 7.5 μL of 2×RT-PCR buffer, 0.4 μL of 25×RT-PCR enzyme mix, 0.75 μL of 20×GAPDH primer-probe mix, 4.0075 μL of water, 2 μL of 10-fold diluted cell lysate, 0.06 μL of 100 μM SMN forward primer, 0.06 μL of 100 μM SMN reverse primer, and 0.225 μL of 100 μM SMN probe.
PCR is carried out at the following temperatures for the indicated time: Step 1: 48° C. (15 min); Step 2: 95° C. (10 min); Step 3: 95° C. (15 sec); Step 4: 60° C. (1 min); then repeat Steps 3 and 4 for a total of 40 cycles.
Each reaction mixture contains both SMN2-A minigene and GAPDH primers/probe sets (multiplex design), allowing simultaneous measurement of the levels of two transcripts.
Two SMN spliced products are generated from the SMN2 minigene. The first spliced product containing exon 7, corresponding to SMN2 full length mRNA, is referred to herein using the term “SMN2 minigene FL.” The second spliced product lacking exon 7 is referred to herein using the term “SMN2 minigene Δ7.”
The increase of SMN2 minigene FL mRNA relative to that in cells treated with vehicle control is determined from real-time PCR data using a modified ΔΔCt method (as described in Livak and Schmittgen, Methods, 2001, 25:402-8). The amplification efficiency (E) is calculated from the slope of the amplification curve for SMN2 minigene FL and GAPDH individually. The abundances of SMN2 minigene FL and GAPDH are then calculated as (1+E)^−Ct, where Ct is the threshold value for each amplicon. The abundance of SMN2 minigene FL is normalized to GAPDH abundance. The normalized SMN2 minigene FL abundance from test compound-treated samples is then divided by normalized SMN2 minigene FL abundance from vehicle-treated cells to determine the level of SMN2 FL mRNA relative to vehicle control.

Smn protein = Smn protein assay (HTRF) in cultured cells (SMA patient fibroblasts GM03813); format: cell-based, human; conditions: 48 hours; for EC1.5x for Smn protein expression: SMA patient fibroblast cells (GM03813), HTRF, 7-point concentration data, concentration producing 1.5 times Smn protein vs DMSO vehicle control; for maximum fold (Fold) increase of Smn protein: SMA patient fibroblast cells, 7-point concentration curve, relative to vehicle control
Procedure: The Smn HTRF (homogeneous time resolved fluorescence) assay is used to quantify the level of Smn protein in SMA patient fibroblast cells treated with test compounds.
Cells are thawed and cultured in DMEM-10% FBS for 72 hours. Cells are trypsinized, counted and re-suspended to a concentration of 25,000 cells/mL in DMEM-10% FBS. The cell suspension is plated at 5,000 cells per well in a 96 well microtiter plate and incubated for 3 to 5 hours. […] Test compounds are serially diluted 3.16-fold in 100% DMSO to generate a 7-point concentration curve. 1 μL of test compound solution is transferred to cell-containing wells and cells are incubated for 48 hours in a cell culture incubator (37° C., 5% CO2, 100% relative humidity). Triplicate samples are set up for each test compound concentration. After 48 hours, the supernatant is removed from the wells and 25 μL of the RIPA lysis buffer, containing protease inhibitors, is added to the wells and incubated with shaking at room temperature for 1 hour. 25 μL of the diluent is added and then 35 μL of the resulting lysate is transferred to a 384-well plate, where each well contains 5 μL of the antibody solution (1:100 dilution of anti-SMN d2 and anti-SMN kryptate in SMN reconstitution buffer). The plate is centrifuged for 1 minute to bring the solution to the bottom of the wells, then incubated overnight at room temperature. Fluorescence for each well of the plate at 665 nm and 620 nm is measured on an EnVision multilabel plate reader (Perkin-Elmer).
The normalized fluorescence signal is calculated for each sample, Blank and vehicle control well by dividing the signal at 665 nm by the signal at 620 nm. Normalizing the signal accounts for possible fluorescence quenching due to the matrix effect of the lysate. The ΔF value (a measurement of Smn protein abundance as a percent value) for each sample well is calculated by subtracting the normalized average fluorescence for the Blank control wells from the normalized fluorescence for each sample well, then dividing this difference by the normalized average fluorescence for the Blank control wells and multiplying the resulting value by 100. The ΔF value for each sample well represents the Smn protein abundance from test compound-treated samples. The ΔF value for each sample well is divided by the ΔF value for the vehicle control wells to calculate the fold increase in Smn protein abundance relative to the vehicle control.

Cc1ccn2cc(-c3cc4ccc(N5CCNC[C@@H]5C)nc4oc3=O)nc2c1 [Cpd 59, 3-(7-methylimidazo[1,2-a]pyridin-2-yl)-7-[(2S)-2-methylpiperazin-1-yl]-2H-pyrano[2,3-b]pyridin-2-one]
EC (1.5-fold) [1]: ≤ 0.1 µM | EC1.5x for Smn protein expression (Smn protein): **** (an EC1.5×≦0.3 μM is indicated by four stars (****)) | maximum fold (Fold) increase of Smn protein (Smn protein): **** (a fold increase between >1.5 and ≦1.65 is indicated by four stars (****))

C[C@H]1CNCCN1c1ccc2cc(-c3cn4cccc(F)c4n3)c(=O)oc2n1 [Cpd 63, 3-(8-fluoroimidazo[1,2-a]pyridin-2-yl)-7-[(2S)-2-methylpiperazin-1-yl]-2H-pyrano[2,3-b]pyridin-2-one]
EC (1.5-fold) [1]: ≤ 0.1 µM | EC1.5x for Smn protein expression (Smn protein): **** (an EC1.5×≦0.3 μM is indicated by four stars (****)) | maximum fold (Fold) increase of Smn protein (Smn protein): **** (a fold increase between >1.5 and ≦1.65 is indicated by four stars (****))

C[C@H]1CN(c2ccc3cc(-c4cn5cccc(F)c5n4)c(=O)oc3n2)CCN1 [Cpd 64, 3-(8-fluoroimidazo[1,2-a]pyridin-2-yl)-7-[(3S)-3-methylpiperazin-1-yl]-2H-pyrano[2,3-b]pyridin-2-one]
EC (1.5-fold) [1]: ≤ 0.1 µM | EC1.5x for Smn protein expression (Smn protein): **** (an EC1.5×≦0.3 μM is indicated by four stars (****)) | maximum fold (Fold) increase of Smn protein (Smn protein): **** (a fold increase between >1.5 and ≦1.65 is indicated by four stars (****))

Cc1ccc2nc(-c3cc4ccc(N5CCN[C@@H](C)C5)nc4oc3=O)cn2c1 [Cpd 72, 3-(6-methylimidazo[1,2-a]pyridin-2-yl)-7-[(3S)-3-methylpiperazin-1-yl]-2H-pyrano[2,3-b]pyridin-2-one]
EC (1.5-fold) [1]: ≤ 0.1 µM | EC1.5x for Smn protein expression (Smn protein): **** (an EC1.5×≦0.3 μM is indicated by four stars (****)) | maximum fold (Fold) increase of Smn protein (Smn protein): **** (a fold increase between >1.5 and ≦1.65 is indicated by four stars (****))

Cc1ccc2nc(-c3cc4ccc(N5CCN[C@H](C)C5)nc4oc3=O)cn2c1 [Cpd 73, 3-(6-methylimidazo[1,2-a]pyridin-2-yl)-7-[(3R)-3-methylpiperazin-1-yl]-2H-pyrano[2,3-b]pyridin-2-one]
EC (1.5-fold) [1]: 0.1 to 0.3 µM | EC1.5x for Smn protein expression (Smn protein): ** (an EC1.5× between >1 and ≦3 μM is indicated by two stars (**)) | maximum fold (Fold) increase of Smn protein (Smn protein): *** (a fold increase between >1.35 and ≦1.5 is indicated by three stars (***))

C[C@H]1CN(c2ccc3cc(-c4cn5ccccc5n4)c(=O)oc3n2)CCN1.Cl [Cpd 79, 3-(imidazo[1,2-a]pyridin-2-yl)-7-[(3S)-3-methylpiperazin-1-yl]-2H-pyrano[2,3-b]pyridin-2-one hydrochloride]
EC (1.5-fold) [1]: ≤ 0.1 µM | EC1.5x for Smn protein expression (Smn protein): **** (an EC1.5×≦0.3 μM is indicated by four stars (****)) | maximum fold (Fold) increase of Smn protein (Smn protein): ***** (a fold increase >1.65 is indicated by five stars (*****))

C[C@@H]1CN(c2ccc3cc(-c4cn5ccccc5n4)c(=O)oc3n2)CCN1.Cl [Cpd 80, 3-(imidazo[1,2-a]pyridin-2-yl)-7-[(3R)-3-methylpiperazin-1-yl]-2H-pyrano[2,3-b]pyridin-2-one hydrochloride]
EC (1.5-fold) [1]: ≤ 0.1 µM | EC1.5x for Smn protein expression (Smn protein): **** (an EC1.5×≦0.3 μM is indicated by four stars (****)) | maximum fold (Fold) increase of Smn protein (Smn protein): **** (a fold increase between >1.5 and ≦1.65 is indicated by four stars (****))

C[C@H]1CN(c2ccc3cc(-c4cn5ccsc5n4)c(=O)oc3n2)CCN1.Cl [Cpd 83, 3-(imidazo[2,1-b][1,3]thiazol-6-yl)-7-[(3S)-3-methylpiperazin-1-yl]-2H-pyrano[2,3-b]pyridin-2-one hydrochloride]
EC (1.5-fold) [1]: ≤ 0.1 µM | EC1.5x for Smn protein expression (Smn protein): **** (an EC1.5×≦0.3 μM is indicated by four stars (****)) | maximum fold (Fold) increase of Smn protein (Smn protein): **** (a fold increase between >1.5 and ≦1.65 is indicated by four stars (****))

C[C@@H]1CN(c2ccc3cc(-c4cn5ccsc5n4)c(=O)oc3n2)CCN1.Cl [Cpd 84, 3-(imidazo[2,1-b][1,3]thiazol-6-yl)-7-[(3R)-3-methylpiperazin-1-yl]-2H-pyrano[2,3-b]pyridin-2-one hydrochloride]
EC (1.5-fold) [1]: ≤ 0.1 µM | EC1.5x for Smn protein expression (Smn protein): **** (an EC1.5×≦0.3 μM is indicated by four stars (****)) | maximum fold (Fold) increase of Smn protein (Smn protein): ***** (a fold increase >1.65 is indicated by five stars (*****))

Cc1ccn2cc(-c3cc4ccc(N5C[C@H](C)NC[C@H]5C)nc4oc3=O)nc2c1 [Cpd 88, 7-[(2R,5S)-2,5-dimethylpiperazin-1-yl]-3-(7-methylimidazo[1,2-a]pyridin-2-yl)-2H-pyrano[2,3-b]pyridin-2-one]
EC (1.5-fold) [1]: ≤ 0.1 µM | EC1.5x for Smn protein expression (Smn protein): **** (an EC1.5×≦0.3 μM is indicated by four stars (****)) | maximum fold (Fold) increase of Smn protein (Smn protein): **** (a fold increase between >1.5 and ≦1.65 is indicated by four stars (****))

Cc1ccc2nc(-c3cc4ccc(N5C[C@H](C)N(C)C[C@H]5C)nc4oc3=O)cn2c1 [Cpd 93, 3-(6-methylimidazo[1,2-a]pyridin-2-yl)-7-[(2R,5S)-2,4,5-trimethylpiperazin-1-yl]-2H-pyrano[2,3-b]pyridin-2-one]
EC (1.5-fold) [1]: 0.3 to 1 µM | maximum fold (Fold) increase of Smn protein (Smn protein): *** (a fold increase between >1.35 and ≦1.5 is indicated by three stars (***))

Cc1cn2cc(-c3cc4ccc(N5C[C@H](C)NC[C@H]5C)nc4oc3=O)nc2cn1 [Cpd 102, 7-[(2R,5S)-2,5-dimethylpiperazin-1-yl]-3-(6-methylimidazo[1,2-a]pyrazin-2-yl)-2H-pyrano[2,3-b]pyridin-2-one]
EC (1.5-fold) [1]: ≤ 0.1 µM | EC1.5x for Smn protein expression (Smn protein): **** (an EC1.5×≦0.3 μM is indicated by four stars (****)) | maximum fold (Fold) increase of Smn protein (Smn protein): ***** (a fold increase >1.65 is indicated by five stars (*****))
